The text below walks through data of US8236512B1, “Methods of developing terpene synthase variants” (Amyris, Inc., priority 2011, dated 2012).

Molecules are shown by their SMILES.

For this experiment, the target named is Artemisia annua β-farnesene synthase (SEQ ID NO: 111) variant FS_C_8 F11S/V24D/L18I/M35T/T196S/Y288F/T319S/R348K/T385A/I434T/T446N/I460V/V467I (parent coding se (Artemisia annua, UniProt Q9FXY7)). Description: Steady-state kinetics of purified farnesene synthase variant FS_C_8. The note with it: purified enzyme. Format: biochemical.

What is called Km is the substrate concentration at which the rate is half of its maximum.

Sequence of Artemisia annua β-farnesene synthase (SEQ ID NO: 111) variant FS_C_8 F11S/V24D/L18I/M35T/T196S/Y288F/T319S/R348K/T385A/I434T/T446N/I460V/V467I (parent coding se (Q9FXY7 whole entry F11S/L18I/V24D/M35T/T196S/Y288F/T319S/R348K): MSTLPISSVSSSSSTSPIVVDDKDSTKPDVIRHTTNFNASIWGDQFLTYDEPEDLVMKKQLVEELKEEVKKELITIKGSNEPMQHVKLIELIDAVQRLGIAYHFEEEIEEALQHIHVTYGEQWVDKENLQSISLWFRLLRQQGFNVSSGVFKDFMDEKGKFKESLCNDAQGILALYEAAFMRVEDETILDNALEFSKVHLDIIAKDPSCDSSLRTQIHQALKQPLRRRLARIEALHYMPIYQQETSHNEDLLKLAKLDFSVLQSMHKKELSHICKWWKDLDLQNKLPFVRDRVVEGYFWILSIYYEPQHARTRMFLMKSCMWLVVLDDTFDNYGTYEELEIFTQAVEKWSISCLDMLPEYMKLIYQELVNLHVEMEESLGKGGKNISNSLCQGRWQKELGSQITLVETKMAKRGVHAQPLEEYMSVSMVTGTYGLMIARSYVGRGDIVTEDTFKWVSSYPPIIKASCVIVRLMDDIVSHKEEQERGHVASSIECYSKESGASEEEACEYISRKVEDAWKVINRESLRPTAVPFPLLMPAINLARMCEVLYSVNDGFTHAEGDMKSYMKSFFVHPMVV

As for `CC(C)=CCC/C(C)=C/CC/C(C)=C/CO[P@@](=O)(O)OP(=O)(O)O` (stereo in doubt) [FPP, farnesyl diphosphate], the Km came to 1550 ± 760 nM.
